Values of other authors in patent US10265268B2, “External composition for screen foamers” (POLA PHARMA INC., priority 2014, dated 2019).

settings: surfactants from NIKKOL / suitable examples

Compound | HLB
Polyoxyethylene (20) polyoxypropylene (8) cetyl ether | 12.5
CCCCCCCCCCCCCCCCCC(=O)OCC(O)CO (centres unmarked) [Glyceryl monostearate] | 4.0
Polyethylene glycol monostearate (40 E.O.) | 17.5

More lines, now with the values ahead:

HLB | Compound
13.5 | Polyoxyethylene (10) cetyl ether
16.5 | Polyoxyethylene (20) behenyl ether
